Measured values taken from ChEMBL document CHEMBL3588748, “Original 2-(3-Alkoxy-1H-pyrazol-1-yl)azines Inhibitors of Human Dihydroorotate Dehydrogenase (DHODH)” (J Med Chem, 2015).
In brackets after ≈: the same amount, converted by molar mass. Activity calls are given as the source filed them.

Assays:
Plasmodium falciparum [1] = assay: Antiplasmodial activity against Plasmodium falciparum 3D7 assessed as inhibition of parasite growth by SYBR Green I dye based assay; format: functional, organism-based
[2] = biological target: T1, Dihydroorotate dehydrogenase (quinone), mitochondrial (Plasmodium falciparum (isolate 3D7)) (UniProt Q08210); assay: Inhibition of Plasmodium falciparum DHODH expressed in Escherichia coli by […]-based spectrophotometric method
T1 sequence (whole entry): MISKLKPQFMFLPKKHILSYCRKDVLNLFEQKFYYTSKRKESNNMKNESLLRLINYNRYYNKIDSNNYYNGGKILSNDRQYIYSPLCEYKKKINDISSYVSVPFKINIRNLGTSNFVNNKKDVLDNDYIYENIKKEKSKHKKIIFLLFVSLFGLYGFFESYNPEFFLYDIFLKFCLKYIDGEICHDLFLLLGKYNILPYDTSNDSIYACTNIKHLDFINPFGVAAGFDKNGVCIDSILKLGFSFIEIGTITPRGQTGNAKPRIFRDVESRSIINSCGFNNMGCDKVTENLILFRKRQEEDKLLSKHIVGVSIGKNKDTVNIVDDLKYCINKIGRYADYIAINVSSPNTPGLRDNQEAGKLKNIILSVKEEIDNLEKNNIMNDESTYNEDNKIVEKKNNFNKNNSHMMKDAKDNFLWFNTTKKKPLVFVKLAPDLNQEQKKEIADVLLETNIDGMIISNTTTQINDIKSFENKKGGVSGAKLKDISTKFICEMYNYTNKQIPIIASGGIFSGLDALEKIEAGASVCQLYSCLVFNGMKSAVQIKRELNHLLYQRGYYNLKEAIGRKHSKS

[3] = Half life in human microsomes; format: ADME, Microsome
Plasmodium falciparum [4] = assay: Antiplasmodial activity against Plasmodium falciparum 3D7 assessed as inhibition of parasite growth at 8.66 ug/ml by SYBR Green I dye based assay; format: functional, organism-based
Measles morbillivirus [5] = tested on: Measles morbillivirus
Description: (§1) Antiviral activity against measles virus rMV2/Luc infected in HEK-293T cells assessed as inhibition of virus growth incubated for 24 hrs by firefly luciferase reporter gene assay

Measles morbillivirus [6] = assay: microbe, parasite or virus in culture; settings: rMV2/Luc, 24 h
Description: as §1

Jurkat = assay: Inhibition of cell proliferation of human Jurkat cells incubated for 72 hrs by Celltiter-Glo assay; format: functional, cell-based

Row | SMILES | IC50 (Plasmodium falciparum [1]) | inhibition [2] | t1/2 [3] | growth inhibition (GI) (Plasmodium falciparum [4]) | pMIC50 (Measles morbillivirus [5]) | MIC50 (Measles morbillivirus [6]) | IC50 (Jurkat)
1 | Cc1c(Oc2c(F)cccc2F)c(OC(C)C)nn1-c1ccc(C2CC2)nn1 | 0.33 µM | inactive | – | – | – | – | –
2 | Cc1c(Oc2c(F)cccc2F)c(OC(C)C)nn1-c1ncc(C2CC2)cc1O | – | – | 38 min | inactive | 8.1 | – | –
3 | Cc1ccc(-n2nc(OC(C)C)c(Oc3c(F)cccc3F)c2C)nn1 | 0.47 µM | inactive | – | – | – | – | –
4 | Cc1c(Oc2ccccc2F)c(OC(C)C)nn1-c1ccc(C2CC2)cn1 | – | – | 4 min | inactive | 7.4 | – | –
5 | C/C(O)=C(\C#N)C(=O)Nc1ccc(C(F)(F)F)cc1 [TERIFLUNOMIDE] | – | – | – | inactive | – | 5 µM (≈ 1.35 µg/mL) | 60 µM
6 | COc1ccc(-n2nc(OC(C)C)c(Oc3c(F)cccc3F)c2C)nn1 | – | – | 22 min | inactive | 7.1 | – | –
7 | Cc1c(Oc2c(F)cccc2F)c(OC(C)C)nn1-c1ncc(Br)cc1F | – | – | 60 min | inactive | 6.9 | – | –
8 | Cc1c(Oc2c(F)cccc2F)c(OC(C)C)nn1-c1ccc(C2CC2)cn1 | – | – | 6 min | inactive | 9 | – | –
9 | CCOc1nn(-c2ccc(C3CC3)cn2)c(C)c1Oc1cc(Cl)cc(Cl)c1 | – | – | – | inactive | 6.9 | – | –
10 | Cc1c(Oc2ccc(F)cc2)c(OC(C)C)nn1-c1ccc(C2CC2)nn1 | – | – | – | inactive | 5.6 | – | –
11 | Cc1c(Oc2cc(F)ccc2F)c(OC(C)C)nn1-c1ccc(C2CC2)nn1 | – | – | – | inactive | 7 | – | –
